Our source for the IC50 values is patent publication US10428066B2, “Imidazo[4,5-C]pyridine and pyrrolo[2,3-C]pyridine derivatives as SSAO inhibitors” (PROXIMAGEN, LLC, priority 2013, dated 2019).

Where a name gives a salt, the structure may show the parent alone.

For orientation: IC50 means the point on the concentration scale where inhibition reaches its midpoint.

For this experiment, the target named is purified recombinantly expressed human SSAO (Homo sapiens (Human), UniProt Q16853). The experiment is described as follows: SSAO enzyme inhibition assay (HRP-coupled hydrogen peroxide detection or 14C-benzaldehyde detection, benzylamine substrate). Particulars: human recombinant SSAO, RT. The format is biochemical. As to the method: All primary assays were performed at RT. with purified recombinantly expressed human SSAO. Enzyme was prepared essentially as described in Öhman et al. (Protein Expression and Purification 46 (2006) 321-331). In addition, secondary- and selectivity assays were performed using SSAO prepared from various tissues or purified rat recombinant SSAO. The enzyme activity was assayed with benzylamine as substrate by measuring either benzaldehyde production, using ^14C-labeled substrate, or by utilizing the production of hydrogen peroxide in a horseradish peroxidase (HRP) coupled reaction. Briefly, test compounds were dissolved in dimethyl sulfoxide (DMSO) to a concentration of 10 mM. Dose-response measurements were assayed by either creating 1:10 serial dilutions in DMSO to produce a 7 point curve or by making 1:3 serial dilutions in DMSO to produce 11 point curves.
Sequence of purified recombinantly expressed human SSAO (Q16853 29-763): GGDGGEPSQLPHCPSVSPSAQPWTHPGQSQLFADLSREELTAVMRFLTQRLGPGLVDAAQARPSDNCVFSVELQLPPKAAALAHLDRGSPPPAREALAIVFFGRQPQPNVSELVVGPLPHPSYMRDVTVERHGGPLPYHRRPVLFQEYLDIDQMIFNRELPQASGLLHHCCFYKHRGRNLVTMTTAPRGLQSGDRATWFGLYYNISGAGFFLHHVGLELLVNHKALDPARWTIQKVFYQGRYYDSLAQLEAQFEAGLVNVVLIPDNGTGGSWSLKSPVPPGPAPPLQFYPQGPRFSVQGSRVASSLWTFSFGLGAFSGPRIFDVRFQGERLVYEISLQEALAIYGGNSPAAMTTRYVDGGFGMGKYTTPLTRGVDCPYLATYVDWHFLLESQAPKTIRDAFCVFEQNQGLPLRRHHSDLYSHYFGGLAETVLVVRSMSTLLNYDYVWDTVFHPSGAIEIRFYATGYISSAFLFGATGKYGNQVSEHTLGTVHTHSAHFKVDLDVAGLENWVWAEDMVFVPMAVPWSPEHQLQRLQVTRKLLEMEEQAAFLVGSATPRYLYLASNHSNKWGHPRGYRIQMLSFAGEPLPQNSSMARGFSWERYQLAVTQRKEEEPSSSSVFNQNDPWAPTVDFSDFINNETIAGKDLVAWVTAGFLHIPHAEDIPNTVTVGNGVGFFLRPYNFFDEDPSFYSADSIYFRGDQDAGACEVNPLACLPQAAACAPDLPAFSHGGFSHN
In a horseradish peroxidase (HRP) coupled reaction, hydrogen peroxide oxidation of 10-acetyl-3,7-dihydroxyphenoxazine produced resorufin, which is a highly fluorescent compound (Zhout and Panchuk-Voloshina. Analytical Biochemistry 253 (1997) 169-174; Amplex® Red Hydrogen Peroxide/peroxidase Assay kit, Invitrogen A22188). Enzyme and compounds in 50 mM sodium phosphate, pH 7.4 were set to pre-incubate in flat-bottomed microtiter plates for approximately 15 min before initiating the reaction by addition of a mixture of HRP, benzylamine and Amplex reagent. Benzylamine concentration was fixed at a concentration corresponding to the Michaelis constant, determined using standard procedures. Fluorescence intensity was then measured at several time points during 1-2 h, exciting at 544 nm and reading the emission at 590 nm. For the human SSAO assay final concentrations of the reagents in the assay wells were: SSAO enzyme 1 ug/ml, benzylamine 100 uM, Amplex reagent 20 uM, HRP 0.1 U/mL and varying concentrations of test compound. The inhibition was measured as % decrease of the signal compared to a control without inhibitor (only diluted DMSO). The background signal from a sample containing no SSAO enzyme was subtracted from all data points. Data was fitted to a four parameter logistic model and IC50 values were calculated using the GraphPad Prism 4 or XLfit 4 programs.
SSAO activity was assayed using 14C-labeled benzylamine and analysed by measuring radioactive benzaldehyde. In a white 96-well optiplate (Packard), 20 uL of diluted test compound was pre-incubated at room temperature with 20 uL SSAO enzyme for approximately 15 min with continuous agitation. All dilutions were made with PBS. The reaction was initiated by adding 20 uL of the benzylamine substrate solution containing [7-14C] Benzylamine hydrochloride (CFA589, GE Healthcare). The plate was incubated for 1 h as above after which the reaction was stopped by acidification (10 uL 1M aq HCl). Then 90 uL Micro Scint-E solution (Perkin-Elmer) was added to each well and the plate was continuously mixed for 15 min. Phase separation occurred instantly and activity was read in a Topcount scintillation counter (Perkin-Elmer). In the final reaction well, the human recombinant SSAO concentration was 10 ug/ml. In order to optimize sensitivity, the substrate concentration was decreased as compared to the HRP coupled assay in order to get a higher fraction of radioactive product. In the human SSAO assay, benzylamine concentration was 40 uM (0.2 uCi/mL). Data was analysed as above.
With `Clc1ccc(-n2c(-c3cccnc3)nc3ccncc32)cc1` [Example 1, 3-[3-(4-Chlorophenyl)-3H-imidazo[4,5-c]pyridin-2-yl]pyridine], the IC50 lay within 200 to 1200 nM.
The same measure for `Clc1ccc(-n2c(-c3ccncc3)nc3ccncc32)cc1` [Example 2, 4-[3-(4-Chlorophenyl)-3H-imidazo[4,5-c]pyridin-2-yl]pyridine]: 200 to 1200 nM; for `Clc1ccc(-n2c(-c3ccc(CN4CCOCC4)nc3)nc3ccncc32)cc1` [Example 3, 4-({5-[3-(4-Chlorophenyl)-3H-imidazo[4,5-c]pyridin-2-yl]pyridin-2-yl}methyl)morpholine]: 50 to 200 nM.
Regarding `Clc1ccc(-n2c(-c3cnc(N4CCOCC4)cn3)nc3ccncc32)cc1` [Example 5, 4-{5-[3-(4-Chlorophenyl)-3H-imidazo[4,5-c]pyridin-2-yl]pyrazin-2-yl}morpholine], the half-maximal inhibitory concentration (IC50) lay within 50 to 200 nM.
Next, `O=C(c1ccc(-c2nc3ccncc3n2-c2ccc(Cl)cc2)cn1)N1CCOCC1` [Example 6, 4-({5-[3-(4-Chlorophenyl)-3H-imidazo[4,5-c]pyridin-2-yl]pyridin-2-yl}carbonyl)morpholine]: 200 to 1200 nM.
The same measure for `Clc1ccc(-n2c(-c3cnc(NC4CCOCC4)cn3)nc3ccncc32)cc1` [Example 7, 5-[3-(4-Chlorophenyl)-3H-imidazo[4,5-c]pyridin-2-yl]-N-(oxan-4-yl)pyrazin-2-amine]: 50 to 200 nM; for `Fc1ccc(-n2c(-c3cnc(NC4CC4)nc3)nc3ccncc32)cc1` [Example 10, N-Cyclopropyl-5-[3-(4-fluorophenyl)-3H-imidazo[4,5-c]pyridin-2-yl]pyrimidin-2-amine]: 50 to 200 nM.
Consider `O=C1CN(c2ncc(-c3nc4ccncc4n3-c3ccc(F)cc3)cn2)CCN1` [Example 12, 4-{5-[3-(4-Fluorophenyl)-3H-imidazo[4,5-c]pyridin-2-yl]pyrimidin-2-yl}piperazin-2-one], for which the IC50 was 50 to 200 nM.
Next, `O=C(NC1CC1)c1ccc(-c2nc3ccncc3n2-c2ccc(Cl)cc2)cn1` [Example 14, 5-[3-(4-Chlorophenyl)-3H-imidazo[4,5-c]pyridin-2-yl]-N-cyclopropylpyridine-2-carboxamide]: 200 to 1200 nM.
Turning to `Fc1ccc(-n2c(-c3ccc(C4CCOCC4)nn3)nc3ccncc32)cc1` [Example 15, 3-[3-(4-Fluorophenyl)-3H-imidazo[4,5-c]pyridin-2-yl]-6-(oxan-4-yl)pyridazine], the IC50 lay in the range of 50 to 200 nM.
Take `CS(=O)(=O)Nc1ccc(-c2nc3ccncc3n2-c2ccc(Cl)cc2)cn1` [Example 16, N-{5-[3-(4-Chlorophenyl)-3H-imidazo[4,5-c]pyridin-2-yl]pyridin-2-yl}methanesulfonamide]: the 50% inhibitory concentration (IC50) was in the range of 200 to 1200 nM.
Next, `Clc1ccc(-n2c(-c3csc(N4CCNCC4)n3)nc3ccncc32)cc1` [Example 17, 1-{4-[3-(4-Chlorophenyl)-3H-imidazo[4,5-c]pyridin-2-yl]-1,3-thiazol-2-yl}piperazine dihydrochloride]: 200 to 1200 nM; `Clc1ccc(-n2c(-c3cnc(N4CCNCC4)o3)nc3ccncc32)cc1` [Example 18, 1-{5-[3-(4-Chlorophenyl)-3H-imidazo[4,5-c]pyridin-2-yl]-1,3-oxazol-2-yl}piperazine dihydrochloride]: 50 to 200 nM; `Clc1ccc(-n2c(-c3cnc(N4CCNCC4)s3)nc3ccncc32)cc1` [Example 19, 1-{5-[3-(4-Chlorophenyl)-3H-imidazo[4,5-c]pyridin-2-yl]-1,3-thiazol-2-yl}piperazine]: 50 to 200 nM.
Take `Fc1ccc(-n2c(-c3cnc(NC4CCOCC4)nc3)nc3ccncc32)cc1` [Example 20, 5-[3-(4-Fluorophenyl)-3H-imidazo[4,5-c]pyridin-2-yl]-N-(oxan-4-yl)pyrimidin-2-amine]: the half-inhibitory concentration (IC50) was 50 to 200 nM.
The same measure for `Cc1nc(N2CCOCC2)ncc1-c1nc2ccncc2n1-c1ccc(F)cc1` [Example 26, 4-{5-[3-(4-Fluorophenyl)-3H-imidazo[4,5-c]pyridin-2-yl]-4-methylpyrimidin-2-yl}morpholine]: 50 to 200 nM; for `COc1nc(N2CCOCC2)ccc1-c1nc2ccncc2n1-c1ccc(F)cc1` [Example 28, 4-{5-[3-(4-Fluorophenyl)-3H-imidazo[4,5-c]pyridin-2-yl]-6-methoxypyridin-2-yl}morpholine]: 50 to 200 nM; for `Cc1cc(N2CCOCC2)nc(C)c1-c1nc2ccncc2n1-c1ccc(F)cc1` [Example 29, 4-{5-[3-(4-Fluorophenyl)-3H-imidazo[4,5-c]pyridin-2-yl]-4,6-dimethylpyridin-2-yl}morpholine]: 200 to 1200 nM.
Next, `Fc1ccc(-n2c(-c3cnc(C4CC4)nc3)nc3ccncc32)cc1` [Example 30, 2-Cyclopropyl-5-[3-(4-fluorophenyl)-3H-imidazo[4,5-c]pyridin-2-yl]pyrimidine]: 200 to 1200 nM; `Nc1ncc(-c2nc3ccncc3n2-c2ccc(Cl)cc2)cn1` [Example 31, 5-[3-(4-Chlorophenyl)-3H-imidazo[4,5-c]pyridin-2-yl]pyrimidin-2-amine]: 200 to 1200 nM; `Cn1cc(-c2nc3ccncc3n2-c2ccc(Cl)cc2)ccc1=O` [Example 33, 5-[3-(4-Chlorophenyl)-3H-imidazo[4,5-c]pyridin-2-yl]-1-methyl-1,2-dihydropyridin-2-one]: 200 to 1200 nM.
The same measure for `O=c1cc(-c2nc3ccncc3n2-c2ccc(Cl)cc2F)cc[nH]1` [Example 34, 4-[3-(4-Chloro-2-fluorophenyl)-3H-imidazo[4,5-c]pyridin-2-yl]-1,2-dihydropyridin-2-one]: 50 to 200 nM; for `O=c1ccc(-c2nc3ccncc3n2-c2ccc(Cl)cc2F)c[nH]1` [Example 35, 5-[3-(4-Chloro-2-fluorophenyl)-3H-imidazo[4,5-c]pyridin-2-yl]-1,2-dihydropyridin-2-one]: 200 to 1200 nM.
On to `Cc1ccc(-n2c(-c3cnc(N4C[C@@H](C)O[C@@H](C)C4)nc3)nc3ccncc32)nc1` [Example 36, (2R,6S)-2,6-Dimethyl-4-{5-[3-(5-methylpyridin-2-yl)-3H-imidazo[4,5-c]pyridin-2-yl]pyrimidin-2-yl}morpholine], for which the IC50 fell in the range of 50 to 200 nM.
Next, `CC(C)OCCNc1ncc(-c2nc3ccncc3n2-c2ccc(F)cc2)cn1` [Example 38, 5-[3-(4-Fluorophenyl)-3H-imidazo[4,5-c]pyridin-2-yl]-N-[2-(propan-2-yloxy)ethyl]pyrimidin-2-amine]: 50 to 200 nM; `CN1CCN(c2ncc(-c3nc4ccncc4n3-c3ccc(F)cc3)cn2)CC1=O` [Example 40, 4-{5-[3-(4-Fluorophenyl)-3H-imidazo[4,5-c]pyridin-2-yl]pyrimidin-2-yl}-1-methylpiperazin-2-one]: 50 to 200 nM; `CCOCCNc1ncc(-c2nc3ccncc3n2-c2ccc(F)cc2)cn1` [Example 42, N-(2-Ethoxyethyl)-5-[3-(4-fluorophenyl)-3H-imidazo[4,5-c]pyridin-2-yl]pyrimidin-2-amine]: 50 to 200 nM.
Next, `Clc1ccc(-n2c(-c3cnc[nH]3)nc3ccncc32)cc1` [Example 44, 5-[3-(4-Chlorophenyl)-3H-imidazo[4,5-c]pyridin-2-yl]-1H-imidazole]: 200 to 1200 nM; `CN1CCN(Cc2cccc(-c3nc4ccncc4n3-c3ccc(Cl)cc3)c2)CC1` [Example 45, 1-({3-[3-(4-Chlorophenyl)-3H-imidazo[4,5-c]pyridin-2-yl]phenyl}methyl)-4-methylpiperazine; formic acid]: 200 to 1200 nM.
Next, `Cc1ccc(-n2c(-c3cnc(N4CCOCC4)nc3)nc3ccncc32)c(F)c1` [Example 53, 4-{5-[3-(2-Fluoro-4-methylphenyl)-3H-imidazo[4,5-c]pyridin-2-yl]pyrimidin-2-yl}morpholine]: 200 to 1200 nM.
Consider `Fc1ccc(-n2c(-c3ccc(N4CCOCC4)nc3)nc3ccncc32)cc1` [Example 54, 4-{5-[3-(4-Fluorophenyl)-3H-imidazo[4,5-c]pyridin-2-yl]pyridin-2-yl}morpholine], for which the IC50 is 200 to 1200 nM.
